Source: US8114843B2, “Photoreactive regulator of protein function and methods of use thereof” (The Regents of the University of California, priority 2005, dated 2012)

What was measured:
[1] = molecular target: T1, BKα channels (Homo sapiens, UniProt Q12791); experiment: PAL photoswitching, whole-cell patch clamp in HEK cells; format: cell-based; details: n=6
T1 construct: expressed in transfected cells; host or cells: HEK cells
Method: (§1) Cell culture and transfection. HEK293 cells were grown in DMEM containing 5% fetal bovine serum, at 37° C., 7% CO2. For electrophysiology, cells were plated at 12×10^5 cells/cm^2 on poly-L-lysine coated coverslips and transfected using the calcium phosphate method. Recordings were performed 24-36 hours after transfection.
(§2) PAL attachment. HEK293 and hippocampal cells were rinsed in extracellular solution containing in mM: 138 NaCl, 1.5 KCl, 1.2 MgCl2, 2.5 CaCl2, 5 HEPES, 10 glucose and incubated at 37° C. in the dark with 200-250 μM PAL for 15 minutes. For slices, AAQ was diluted to 200 μM in aCSF and treatment was performed in the dark at room temperature for 10 minutes.
(§3) Electrophysiological recording. Recordings from HEK293 and hippocampal neurons were made in the whole-cell patch clamp configuration using a PC-501A amplifier (Warner Instruments). Pulse protocols and measurements were carried out with pCLAMP and a Digidata 1322 interface (Axon Instruments). For voltage-clamp experiment, cells were held at −70 mV. Data was recorded at 20 kHz and filtered at 2 kHz. Recording pipettes with 2.5-4 MΩ resistance were filled with intracellular solution containing in mM: 10 NaCl, 135 K-gluconate, 10 HEPES, 2 MgCl2, 2 MgATP, 1 EGTA, pH 7.4.
(§4) Illumination was provided using a xenon lamp (Sutter Instruments) with narrow band pass filters (380 BP10 for UV and 500 BP5 for visible light respectively). Excitation filters were changed using a lambda 10-2 filter changer (Sutter Instruments) controlled via pCLAMP software.
(§5) Percent photoswitching was defined as the difference between current in UV and visible light divided by current in UV. All data shown in bar graphs are averages±standard error of the mean.

[2] = molecular target: T2, Kv1.4 (Homo sapiens, UniProt P22459); experiment: as above; format: cell-based; details: n=6
T2 construct: expressed in transfected cells; host or cells: HEK cells
T2 sequence (P22459 whole entry): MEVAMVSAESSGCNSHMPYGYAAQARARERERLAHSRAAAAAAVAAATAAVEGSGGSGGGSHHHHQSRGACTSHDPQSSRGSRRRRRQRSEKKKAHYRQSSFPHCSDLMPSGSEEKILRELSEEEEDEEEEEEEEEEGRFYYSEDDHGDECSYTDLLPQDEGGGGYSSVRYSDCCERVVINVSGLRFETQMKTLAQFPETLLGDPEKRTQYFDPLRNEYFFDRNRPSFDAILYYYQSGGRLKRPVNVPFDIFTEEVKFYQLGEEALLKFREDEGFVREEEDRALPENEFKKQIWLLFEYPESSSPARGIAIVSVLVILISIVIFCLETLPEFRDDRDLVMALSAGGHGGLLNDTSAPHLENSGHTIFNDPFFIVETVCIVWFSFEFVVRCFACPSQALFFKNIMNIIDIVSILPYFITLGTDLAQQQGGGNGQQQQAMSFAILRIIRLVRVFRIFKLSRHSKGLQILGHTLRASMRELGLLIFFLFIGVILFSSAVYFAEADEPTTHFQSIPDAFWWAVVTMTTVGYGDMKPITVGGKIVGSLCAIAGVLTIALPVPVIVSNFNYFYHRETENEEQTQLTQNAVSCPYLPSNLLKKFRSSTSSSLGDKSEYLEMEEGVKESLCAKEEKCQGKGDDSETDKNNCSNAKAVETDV
Method: as §1, §2, §3, §4, §5

[3] = molecular target: T3, Kv3.3 (Homo sapiens, UniProt Q14003); experiment: as above; format: cell-based
T3 construct: expressed in transfected cells; host or cells: HEK cells
T3 sequence (Q14003 1-757): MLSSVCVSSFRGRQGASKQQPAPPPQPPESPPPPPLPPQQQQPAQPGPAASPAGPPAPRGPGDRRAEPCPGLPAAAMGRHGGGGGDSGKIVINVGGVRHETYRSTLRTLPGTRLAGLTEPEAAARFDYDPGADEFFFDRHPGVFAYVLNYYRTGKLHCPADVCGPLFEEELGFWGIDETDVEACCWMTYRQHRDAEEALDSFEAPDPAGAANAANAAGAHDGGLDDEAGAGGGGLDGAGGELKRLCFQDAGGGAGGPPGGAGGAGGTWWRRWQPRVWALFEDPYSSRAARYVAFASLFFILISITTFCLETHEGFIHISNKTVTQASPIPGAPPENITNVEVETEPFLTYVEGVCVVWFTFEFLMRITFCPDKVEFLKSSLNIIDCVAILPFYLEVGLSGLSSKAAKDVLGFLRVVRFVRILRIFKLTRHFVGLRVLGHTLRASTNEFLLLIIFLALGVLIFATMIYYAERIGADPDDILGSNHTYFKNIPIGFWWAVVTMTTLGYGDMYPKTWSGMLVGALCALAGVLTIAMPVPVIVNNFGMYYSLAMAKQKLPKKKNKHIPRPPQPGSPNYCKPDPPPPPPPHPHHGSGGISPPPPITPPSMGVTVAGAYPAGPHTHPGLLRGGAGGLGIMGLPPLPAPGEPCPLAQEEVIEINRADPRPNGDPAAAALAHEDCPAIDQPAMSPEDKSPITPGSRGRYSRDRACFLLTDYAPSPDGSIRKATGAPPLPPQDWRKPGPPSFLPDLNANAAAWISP
Method: as §1, §2, §3, §4, §5

[4] = molecular target: T4, Kv4.2 (Homo sapiens, UniProt Q9NZV8); experiment: as above; format: cell-based; details: n=6
T4 construct: expressed in transfected cells; host or cells: HEK cells
T4 sequence (Q9NZV8 1-630): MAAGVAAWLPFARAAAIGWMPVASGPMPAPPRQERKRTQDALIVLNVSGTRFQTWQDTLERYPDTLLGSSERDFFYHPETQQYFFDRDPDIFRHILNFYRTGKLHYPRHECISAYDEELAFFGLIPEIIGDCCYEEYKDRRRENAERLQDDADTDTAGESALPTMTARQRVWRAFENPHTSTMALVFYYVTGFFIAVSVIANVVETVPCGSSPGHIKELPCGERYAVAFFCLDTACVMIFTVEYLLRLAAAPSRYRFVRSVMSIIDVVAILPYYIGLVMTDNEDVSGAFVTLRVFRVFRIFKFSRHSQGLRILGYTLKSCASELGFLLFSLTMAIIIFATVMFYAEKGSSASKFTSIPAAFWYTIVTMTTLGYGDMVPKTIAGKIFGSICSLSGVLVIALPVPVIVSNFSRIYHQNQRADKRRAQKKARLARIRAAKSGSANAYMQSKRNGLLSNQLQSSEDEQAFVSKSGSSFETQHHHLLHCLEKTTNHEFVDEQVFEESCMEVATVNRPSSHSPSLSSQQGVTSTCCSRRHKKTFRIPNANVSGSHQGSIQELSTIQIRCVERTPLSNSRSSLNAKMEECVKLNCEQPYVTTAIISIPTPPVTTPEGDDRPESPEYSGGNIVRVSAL
Method: as §1, §2, §3, §4, §5

[5] = tested on: basket cells; experiment: Loose-patch extracellular recording in cerebellar slices; format: cell-based, rat; details: 500 nm light; with AMPA, NMDA and GABAA receptor antagonists; n=6
Method: Brain Slice Preparation. Parasagittal cerebellar slices were prepared using standard techniques approved by the UCLA Animal Care Committee. The cerebellum was removed from the cranium of a 14-20 day old Sprague-Dawley rat, mounted on an agar support and sectioned parasagitally using a vibrotome (Leica VT-1000) while submerged in cold (<4° C.) artificial cerebrospinal fluid (aCSF) containing in mM: 119 NaCl, 26 NaHCO3, 11 glucose, 2.5 KCl, 2.5 CaCl2, 1.3 MgCl2, and 1 NaH2PO4 and saturated with 95% O2 and 5% CO2 Following sectioning, the […] slices were stored in 35° C. aCSF for 30 minutes and brought to room temperature for subsequent electrophysiological experiments.
as §2
For cerebellar slices, neuronal cell bodies were visualized using an upright microscope with a 40× water immersion lens and equipped with an infrared-DIC enhancement. Loose-patch extracellular recordings were performed using an Axopatch 200B amplifier (Axon Instruments). Electrophysiological recordings were filtered at 1 KHz and digitized at 2-4 KHz. […]

T1 sequence (Q12791 whole entry): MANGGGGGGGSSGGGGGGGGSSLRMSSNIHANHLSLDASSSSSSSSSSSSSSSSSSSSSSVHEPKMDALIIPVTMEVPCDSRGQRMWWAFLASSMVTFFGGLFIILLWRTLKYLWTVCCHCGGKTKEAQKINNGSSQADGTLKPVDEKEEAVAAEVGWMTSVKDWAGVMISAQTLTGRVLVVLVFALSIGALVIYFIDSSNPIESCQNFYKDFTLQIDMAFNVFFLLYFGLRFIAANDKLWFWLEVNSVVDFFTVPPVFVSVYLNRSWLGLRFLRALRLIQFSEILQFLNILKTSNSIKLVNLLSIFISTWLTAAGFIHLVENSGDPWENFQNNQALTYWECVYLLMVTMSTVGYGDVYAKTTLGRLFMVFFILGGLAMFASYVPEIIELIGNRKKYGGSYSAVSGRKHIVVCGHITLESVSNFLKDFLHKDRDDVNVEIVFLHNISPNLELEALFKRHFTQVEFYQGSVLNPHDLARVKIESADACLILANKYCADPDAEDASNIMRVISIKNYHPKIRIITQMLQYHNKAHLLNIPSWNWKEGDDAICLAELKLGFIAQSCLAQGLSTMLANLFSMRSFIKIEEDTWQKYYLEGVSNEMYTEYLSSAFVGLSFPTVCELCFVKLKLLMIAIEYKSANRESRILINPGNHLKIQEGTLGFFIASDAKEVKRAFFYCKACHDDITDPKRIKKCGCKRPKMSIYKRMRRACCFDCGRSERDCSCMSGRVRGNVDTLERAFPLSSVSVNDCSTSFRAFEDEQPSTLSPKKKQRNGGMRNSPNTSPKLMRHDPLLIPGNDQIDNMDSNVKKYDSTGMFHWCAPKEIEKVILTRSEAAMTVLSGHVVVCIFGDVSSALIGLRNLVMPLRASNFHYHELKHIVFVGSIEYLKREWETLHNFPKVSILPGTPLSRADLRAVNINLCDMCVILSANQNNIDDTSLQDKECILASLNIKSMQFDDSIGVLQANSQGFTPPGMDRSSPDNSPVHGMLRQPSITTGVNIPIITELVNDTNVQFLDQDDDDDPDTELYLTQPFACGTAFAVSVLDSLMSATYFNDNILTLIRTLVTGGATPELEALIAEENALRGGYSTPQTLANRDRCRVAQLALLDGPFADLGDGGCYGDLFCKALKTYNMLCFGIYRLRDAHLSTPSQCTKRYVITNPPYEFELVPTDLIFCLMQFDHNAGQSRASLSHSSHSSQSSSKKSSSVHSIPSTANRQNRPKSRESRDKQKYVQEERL

C=CC(=O)Nc1ccc(/N=N/c2ccc(NC(=O)C[N+](CC)(CC)CC)cc2)cc1 [AAQ]
current regulated by light [1]: ~45% | current turned on and off by light [2]: ~80% | light-sensitivity imparted on channel [3]: imparted light-sensitivity | current turned on and off by light [4]: ~80% | enhancement of firing frequency [5]: 324±160%
